{"source": "patent US8877707B2", "about": "“Inhibitors of HCV NS5A” (Presidio Pharmaceuticals, Inc., priority 2010, dated 2014)"}
{"system": "HCV genotype 1b replicon in Huh 7 cells", "experiment": "HCV replicon assay (1b_Huh-Luc/Neo-ET cell line, luciferase readout)", "assay_type": "cell-based", "details": "Hepatitis C virus; Table 1; genotype 1b replicon, Huh 7 cells, 72 h, luciferase; read-out: Inhibition of HCV genotype 1b", "procedure,_shortened": "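Huh 7 cells carrying a bicistronic genotype 1b luciferase replicon were treated with compound in triplicate the day after plating and incubated 72 h. Luciferase activity expressed as % of untreated control; EC50 from a four-parameter logistic fit, repeated several times.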", "units": {"EC50": "nM"}}
{"compound": "COC(=O)N[C@H](C(=O)N1CCC[C@H]1c1ncc(-c2ccc3c(-c4ccc5[nH]c([C@@H]6CCCN6C(=O)[C@@H](NC(=O)OC)C(C)C)nc5c4)cccc3c2)[nH]1)C(C)C", "note": "[compound 214]", "EC50": "10 to 999"}
{"compound": "COC(=O)N[C@H](C(=O)N1CCC[C@H]1c1nc2ccc(-c3cccc4c(-c5cnc([C@@H]6CCCN6C(=O)[C@@H](NC(=O)OC)C6CCOCC6)[nH]5)cccc34)cc2[nH]1)C(C)C", "note": "[compound 215]", "EC50": "< 1"}
{"compound": "COC(=O)N[C@H](C(=O)N1CCC[C@H]1c1nc2ccc(-c3cc4ccc(-c5cnc([C@@H]6CCCN6C(=O)[C@@H](NC(=O)OC)C6CCOCC6)[nH]5)cc4cn3)cc2[nH]1)C(C)C", "note": "[compound 216]", "EC50": "< 1"}
{"compound": "COC(=O)N[C@H](C(=O)N1CCC[C@H]1c1ncc(-c2ccc3cc(-c4ccc5nc([C@@H]6CCCN6C(=O)[C@@H](NC(=O)OC)C6CCOCC6)[nH]c5c4)ncc3c2)[nH]1)C1CCOCC1", "note": "[compound 217]", "EC50": "1 to 9.9"}
{"compound": "COC(=O)N[C@H](C(=O)N1CCC[C@H]1c1ncc(-c2ccc3cc(-c4ccc5nc([C@@H]6CCCN6C(=O)[C@@H](NC(=O)OC)C6CCCC6)[nH]c5c4)ccc3c2)[nH]1)C1CCCC1", "note": "[compound 218]", "EC50": "< 1"}
{"compound": "COC(=O)N[C@H](C(=O)N1CCC[C@H]1c1ncc(-c2ccc3cc(-c4ccc5nc([C@@H]6CCCN6C(=O)[C@@H](NC(=O)OC)C6CCOCC6)[nH]c5c4)ncc3c2)[nH]1)C(C)C", "note": "[compound 219]", "EC50": "< 1"}
{"compound": "COC(=O)N[C@H](C(=O)N1CCOC[C@H]1c1ncc(-c2ccc3cc(-c4ccc5nc([C@@H]6CCCN6C(=O)[C@@H](NC(=O)OC)C(C)C)[nH]c5c4)ccc3c2)[nH]1)C(C)C", "note": "[compound 220]", "EC50": "< 1"}
{"compound": "COC(=O)N[C@H](C(=O)N1CCOC[C@H]1c1ncc(-c2ccc3cc(-c4ccc5nc([C@@H]6CCCN6C(=O)[C@@H](NC(=O)OC)C6CCOCC6)[nH]c5c4)ccc3c2)[nH]1)C(C)C", "note": "[compound 221]", "EC50": "< 1"}
{"compound": "COC(=O)N[C@H](C(=O)N1CCC[C@H]1c1ncc(-c2ccc3cc(-c4ccc5nc([C@@H]6COCCN6C(=O)[C@@H](NC(=O)OC)C(C)C)[nH]c5c4)ccc3c2)[nH]1)C(C)C", "note": "[compound 222]", "EC50": "< 1"}
{"compound": "COC(=O)N[C@H](C(=O)N1CCOC[C@H]1c1nc2ccc(-c3ccc4cc(-c5cnc([C@@H]6CCCN6C(=O)[C@@H](NC(=O)OC)C6CCOCC6)[nH]5)ccc4c3)cc2[nH]1)C(C)C", "note": "[compound 223]", "EC50": "< 1"}
{"compound": "COC(=O)N[C@H](C(=O)N1CCOC[C@H]1c1ncc(-c2ccc3cc(-c4ccc5nc([C@@H]6COCCN6C(=O)[C@@H](NC(=O)OC)C(C)C)[nH]c5c4)ccc3c2)[nH]1)C(C)C", "note": "[compound 224]", "EC50": "< 1"}
{"compound": "CC[C@@H](C)[C@H](NC(=O)OC)C(=O)N1CCC[C@H]1c1ncc(-c2ccc3cc(-c4ccc5nc([C@@H]6CCCN6C(=O)[C@@H](NC(=O)OC)[C@H](C)CC)[nH]c5c4)ccc3c2)[nH]1", "note": "[compound 225]", "EC50": "< 1"}
{"compound": "CC[C@H](NC(=O)OC)C(=O)N1CCC[C@H]1c1ncc(-c2ccc3cc(-c4ccc5nc([C@@H]6CCCN6C(=O)[C@H](CC)NC(=O)OC)[nH]c5c4)ccc3c2)[nH]1", "note": "[compound 226]", "EC50": "< 1"}
{"compound": "CCC(CC)[C@H](NC(=O)OC)C(=O)N1CCC[C@H]1c1ncc(-c2ccc3cc(-c4ccc5nc([C@@H]6CCCN6C(=O)[C@@H](NC(=O)OC)C(CC)CC)[nH]c5c4)ccc3c2)[nH]1", "note": "[compound 227]", "EC50": "< 1"}
{"compound": "COC(=O)N[C@H](C(=O)N1CCC[C@H]1c1ncc(-c2ccc3cc(-c4ccc5nc([C@@H]6CCCN6C(=O)[C@@H](NC(=O)OC)C6CC6)[nH]c5c4)ccc3c2)[nH]1)C1CC1", "note": "[compound 228]", "EC50": "< 1"}
{"compound": "COC(=O)N[C@H](C(=O)N1CCC[C@H]1c1ncc(-c2ccc(-c3nc4ccc(-c5cnc([C@@H]6CCCN6C(=O)[C@@H](NC(=O)OC)C(C)C)[nH]5)cc4s3)cc2)[nH]1)C(C)C", "note": "[compound 229]", "EC50": "< 1"}
{"compound": "COC(=O)N[C@@H](C(=O)N1CCC[C@H]1c1ncc(-c2ccc(-c3nc4ccc(-c5cnc([C@@H]6CCCN6C(=O)[C@H](NC(=O)OC)c6ccccc6)[nH]5)cc4s3)cc2)[nH]1)c1ccccc1", "note": "[compound 230]", "EC50": "< 1"}
{"compound": "COC(=O)N[C@H](C(=O)N1CCC[C@H]1c1ncc(-c2ccc(-c3nc4ccc(-c5cnc([C@@H]6CCCN6C(=O)[C@@H](NC(=O)OC)C(C)C)[nH]5)cc4n3C)cc2)[nH]1)C(C)C", "note": "[compound 231]", "EC50": "< 1"}
{"compound": "COC(=O)N[C@H](C(=O)N1CCC[C@H]1c1ncc(-c2ccc(-c3nc4cc(-c5cnc([C@@H]6CCCN6C(=O)[C@@H](NC(=O)OC)C(C)C)[nH]5)ccc4n3C)cc2)[nH]1)C(C)C", "note": "[compound 232]", "EC50": "< 1"}
{"compound": "COC(=O)N[C@@H](C(=O)N1CCC[C@H]1c1ncc(-c2ccc(-c3nc4cc(-c5cnc([C@@H]6CCCN6C(=O)[C@H](NC(=O)OC)c6ccccc6)[nH]5)ccc4n3C)cc2)[nH]1)c1ccccc1", "note": "[compound 233]", "EC50": "< 1"}
{"compound": "COC(=O)N[C@H](C(=O)N1CCC[C@H]1c1ncc(-c2ccc(-c3nc4ccc(-c5cnc([C@@H]6CCCN6C(=O)[C@@H](NC(=O)OC)C(C)C)[nH]5)cc4o3)cc2)[nH]1)C(C)C", "note": "[compound 234]", "EC50": "< 1"}
{"compound": "COC(=O)N[C@@H](C(=O)N1CCC[C@H]1c1ncc(-c2ccc(-c3nc4ccc(-c5cnc([C@@H]6CCCN6C(=O)[C@H](NC(=O)OC)c6ccccc6)[nH]5)cc4o3)cc2)[nH]1)c1ccccc1", "note": "[compound 235]", "EC50": "< 1"}
{"compound": "COC(=O)N[C@H](C(=O)N1CCC[C@H]1c1ncc(-c2ccc(-c3nc4cc(-c5cnc([C@@H]6CCCN6C(=O)[C@@H](NC(=O)OC)C(C)C)[nH]5)ccc4o3)cc2)[nH]1)C(C)C", "note": "[compound 236]", "EC50": "< 1"}
{"compound": "COC(=O)N[C@@H](C(=O)N1CCC[C@H]1c1ncc(-c2ccc(-c3nc4cc(-c5cnc([C@@H]6CCCN6C(=O)[C@H](NC(=O)OC)c6ccccc6)[nH]5)ccc4o3)cc2)[nH]1)c1ccccc1", "note": "[compound 237]", "EC50": "< 1"}
{"compound": "COC(=O)N[C@H](C(=O)N1CCC[C@H]1c1ncc(-c2ccc(-c3nc4cc(-c5cnc([C@@H]6CCCN6C(=O)[C@@H](NC(=O)OC)[C@@H](C)OC)[nH]5)ccc4o3)cc2)[nH]1)[C@@H](C)OC", "note": "[compound 238]", "EC50": "< 1"}
{"compound": "COC(=O)N[C@H](C(=O)N1CCC[C@H]1c1ncc(-c2ccc(-c3nc4cc(-c5cnc([C@@H]6CCCN6C(=O)[C@@H](NC(=O)OC)C6CC6)[nH]5)ccc4o3)cc2)[nH]1)C1CC1", "note": "[compound 239]", "EC50": "< 1"}
{"compound": "COC(=O)N[C@H](C(=O)N1CCC[C@H]1c1ncc(-c2ccc(-c3nc4cc(-c5cnc([C@@H]6CCCN6C(=O)[C@@H](NC(=O)OC)C(C)C)[nH]5)ccc4s3)cc2)[nH]1)C(C)C", "note": "[compound 240]", "EC50": "< 1"}
{"compound": "COC(=O)N[C@H](C(=O)N1CCC[C@H]1c1ncc(-c2ccc(-c3nc4ccc(-c5cnc([C@@H]6CCCN6C(=O)[C@H](NC(=O)OC)c6ccccc6)[nH]5)cc4s3)cc2)[nH]1)C(C)C", "note": "[compound 241]", "EC50": "< 1"}
{"compound": "COC(=O)N[C@H](C(=O)N1CCC[C@H]1c1ncc(-c2ccc(-c3nc4ccc(-c5cnc([C@@H]6CCCN6C(=O)[C@H](NC(=O)OC(C)(C)C)c6ccccc6)[nH]5)cc4s3)cc2)[nH]1)C(C)C", "note": "[compound 242]", "EC50": "< 1"}
{"compound": "COC(=O)N[C@H](C(=O)N1CCCC[C@H]1c1ncc(-c2ccc(-c3nc4ccc(-c5cnc([C@@H]6CCCCN6C(=O)[C@@H](NC(=O)OC)C(C)C)[nH]5)cc4s3)cc2)[nH]1)C(C)C", "note": "[compound 243]", "EC50": "< 1"}
{"compound": "CCNC(=O)N[C@@H](C(=O)N1CCC[C@H]1c1ncc(-c2ccc3nc(-c4ccc(-c5cnc([C@@H]6CCCN6C(=O)[C@@H](NC(=O)OC)C(C)C)[nH]5)cc4)sc3c2)[nH]1)c1ccccc1", "note": "[compound 244]", "EC50": "< 1"}
{"compound": "CNC(=O)N[C@@H](C(=O)N1CCC[C@H]1c1ncc(-c2ccc3nc(-c4ccc(-c5cnc([C@@H]6CCCN6C(=O)[C@@H](NC(=O)OC)C(C)C)[nH]5)cc4)sc3c2)[nH]1)c1ccccc1", "note": "[compound 245]", "EC50": "< 1"}
{"compound": "COC(=O)N[C@H](C(=O)N1CCC[C@H]1c1ncc(-c2ccc(-c3nc4ccc(-c5cnc([C@@H]6CCCN6C(=O)OCc6ccccc6)[nH]5)cc4s3)cc2)[nH]1)C(C)C", "note": "[compound 246]", "EC50": "< 1"}
{"compound": "COC(=O)N[C@H](C(=O)N1CCC[C@H]1c1ncc(-c2ccc(-c3nc4ccc(-c5cnc([C@@H]6CCCN6C(=O)[C@H](NC(=O)OC(C)(C)C)c6ccccc6)[nH]5)cc4o3)cc2)[nH]1)C(C)C", "note": "[compound 247]", "EC50": "< 1"}
{"compound": "COC(=O)N[C@@H](C(=O)N1CCCC[C@H]1c1ncc(-c2ccc(-c3nc4ccc(-c5cnc([C@@H]6CCCCN6C(=O)[C@H](NC(=O)OC)c6ccccc6)[nH]5)cc4s3)cc2)[nH]1)c1ccccc1", "note": "[compound 248]", "EC50": "< 1"}
{"compound": "COC(=O)N[C@H](C(=O)N1CCC[C@H]1c1ncc(-c2ccc(-c3nc4ccc(-c5cnc([C@@H]6CCCN6C(=O)[C@H](NC(=O)OC)c6ccccc6)[nH]5)cc4o3)cc2)[nH]1)C(C)C", "note": "[compound 249]", "EC50": "< 1"}
{"compound": "CC(C)(C)OC(=O)N1CCCC1c1ncc(-c2ccc(-c3nc4cc(-c5cnc([C@@H]6CCCN6C(=O)OCc6ccccc6)[nH]5)ccc4s3)cc2)[nH]1", "note": "(stereo partly drawn) [compound 250]", "EC50": "10 to 999"}
{"compound": "CNC(=O)N[C@@H](C(=O)N1CCC[C@H]1c1ncc(-c2ccc3nc(-c4ccc(-c5cnc([C@@H]6CCCN6C(=O)[C@@H](NC(=O)OC)C(C)C)[nH]5)cc4)oc3c2)[nH]1)c1ccccc1", "note": "[compound 251]", "EC50": "< 1"}
{"compound": "CCNC(=O)N[C@@H](C(=O)N1CCC[C@H]1c1ncc(-c2ccc3nc(-c4ccc(-c5cnc([C@@H]6CCCN6C(=O)[C@@H](NC(=O)OC)C(C)C)[nH]5)cc4)oc3c2)[nH]1)c1ccccc1", "note": "[compound 252]", "EC50": "< 1"}
{"compound": "COC(=O)N[C@H](C(=O)N1CCC[C@H]1c1ncc(-c2ccc(-c3nc4ccc(-c5cnc([C@@H]6CCCN6C(=O)[C@@H](NC(=O)OC)[C@@H](C)OC)[nH]5)cc4o3)cc2)[nH]1)C(C)C", "note": "[compound 253]", "EC50": "< 1"}
{"compound": "COC(=O)N[C@H](C(=O)N1CCC[C@H]1c1ncc(-c2ccc3nc(-c4ccc(-c5cnc([C@@H]6CCCN6C(=O)[C@H](NC(=O)OC(C)(C)C)c6ccccc6)[nH]5)cc4)oc3c2)[nH]1)C(C)C", "note": "[compound 254]", "EC50": "< 1"}
{"compound": "COC(=O)N[C@H](C(=O)N1CCC[C@H]1c1ncc(-c2ccc3nc(-c4ccc(-c5cnc([C@@H]6CCCN6C(=O)[C@H](NC(=O)OC)c6ccccc6)[nH]5)cc4)oc3c2)[nH]1)C(C)C", "note": "[compound 255]", "EC50": "< 1"}
